Laboratory results: patent publication US9481671B2, “Glucosylceramide synthase inhibition for the treatment of collapsing glomerulopathy and other glomerular disease” (Genzyme Corporation, priority 2008, dated 2016)

Test system: GM3
Experiment: GM3 Elisa Assay (B16-FO cells)
Assay type: cell-based
Conditions: 48 h, Table 3, 2 days with compound, read-out: IC50_uM_Mean
Description: B16-FO cells from ATCC (American Tissue Culture Collection) were grown in DMEM media (ATCC) with 10% Fetal Bovine Serum (Hyclone) and Pen/Step/Glutamine (Biowhittaker). 4000 cells per well were plated on collagen coated plates (BD) and allowed to attach for 6 hours in an incubator (37 degrees, 5% CO2). After 6 hours the compounds and controls were added to the wells, the plates mixed and returned to the incubator for 2 days. Day of assay the cells were fixed for 20 minutes with 1% formaldehyde and then washed with Tris Buffered Saline (TBS) 3 times, 150 μl of TBS was left in the wells and 50 μl of goat serum (Invitrogen) was added, the plates mixed and incubated for 1 hour at room temperature. The plates were flicked and the cells incubated with the monoclonal Antibody to GM3 (NeuAc) (Cosmo) for 45 minutes as room temperature. The plates were then washed 3 times with TBS, leaving 150 μl of TBS in the wells and Peroxidase AffinPure F (ab′) 2 frag Gt Anti-mouse IgM, μ Chain Specific (Jackson Immno Research) was added in 50 μl, the plates mixed and incubated for 45 minutes at room temperature. The plates were washed 3 times with TBS, flicked and blotted and 100 μl of Quantablu (Pierce) was added to the wells and incubated for 1 hour then read on a Fluorometer at Ex 325 and Em 420. The data was then analyzed using standard programs.

Structure (SMILES)	IC50
O=C(CCCc1nc(C2CC2)no1)N[C@H](CN1CCCC1)[C@H](O)c1ccc2c(c1)OCCO2 [Compound 648]	1000 to 3000 nM
Cc1noc(CCCCC(=O)N[C@H](CN2CCCC2)[C@H](O)c2ccc3c(c2)OCCO3)n1 [Compound 649]	3000 to 10000 nM
